Test results reported in article PMC7069095, “A cell-permeable peptide-based PROTAC against the oncoprotein CREPT proficiently inhibits pancreatic cancer” (Theranostics, 2020).
Non-standard residues stand in square brackets, D forms with d. No end group written: not given here. *: point of attachment. FITC = O=C1OC2(c3ccc(O)cc3Oc3cc(O)ccc32)c2ccc(NC(=S)*)cc21; Hyp = O=C(O)[C@@H]1C[C@@H](O)CN1; Ahx = NCCCCCC(=O)O

Legend:
[1] = target: T1, ubiquitinated CREPT in Panc-1 cells (Homo sapiens, UniProt Q9NQG5); test: Endogenous IP of CREPT with ubiquitin (Co-IP); format: cell-based; settings: 10 μM peptide for 24 h, IP: CREPT, IB: anti-ubiquitin
T1 construct: endogenous protein level of CREPT in Panc-1, AsPc-1 and MIA-PaCa-2 cells; endogenous in cells; host or cells: Panc-1, AsPc-1, MIA PaCa-2
T1 sequence (Q9NQG5 1-326): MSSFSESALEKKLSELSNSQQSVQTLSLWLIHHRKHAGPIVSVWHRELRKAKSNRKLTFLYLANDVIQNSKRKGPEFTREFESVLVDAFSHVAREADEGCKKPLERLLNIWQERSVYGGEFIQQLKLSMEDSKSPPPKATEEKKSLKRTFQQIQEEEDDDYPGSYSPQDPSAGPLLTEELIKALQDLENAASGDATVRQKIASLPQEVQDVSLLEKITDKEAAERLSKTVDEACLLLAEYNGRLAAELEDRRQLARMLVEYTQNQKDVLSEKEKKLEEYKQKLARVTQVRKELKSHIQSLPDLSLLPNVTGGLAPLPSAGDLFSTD
Method: (§1) For exogenous immunoprecipitation assays, HEK293T cells were plated in 60 mm dishes and then transfected with the indicated plasmids. After 24 h, cells were harvested using RIPA buffer (50 mM Tris-HCl pH 8.0, 2 mM EDTA pH 8.0, 150 mM NaCl, 1% NP-40, 0.5% sodium deoxycholate, 0.1% SDS) with mixed protease inhibitors. Cell lysates were incubated with 2 μg of the indicated antibodies and 30 μL of protein A/G-Sepharose beads at 4 °C overnight. Beads were eluted five times with lysis buffer (50 mM Tris-HCl pH 7.6, 1 mM EDTA pH 8.0, 165 mM NaCl, 0.5% NP-40), and thereafter, a western blot assay was performed to analyze the association by using the indicated antibodies. Western blot was performed as previously reported. Anti-β-actin and anti-Flag antibodies were purchased from Sigma. Anti-Myc antibody was purchased from Santa Cruz Biotechnology. Antibody against CREPT was produced in the laboratory.
In addition, a Co-IP experiment was performed in Panc-1 cells treated with 10 μM PRTC, PRTC-m or PRTC-v for 24 h. […] In the absence of MG132, the level of ubiquitinated CREPT was further increased by PRTC (Figure 6C, compare lane 1 and lane 2).
Figure 6 The degradation of CREPT by PRTC is dependent on its VHL ligand. (A) Immunoblot of CREPT following 24 h incubation with different dosages of PRTC or PRTC-v in Panc-1 cells. (B) Immunoblot of CREPT exposed to 10 μM PRTC or PRTC-v for different time points in Panc-1 cells. (C) Endogenous IP experiment of CREPT with ubiquitin treated with 10 μM PTRC, PTRC-m or PTRC-v in Panc-1 cells. IP: CREPT, IB: Anti-ubiquitin.

[2] = Circular dichroism (CD) spectroscopy; format: physicochemical; settings: 0.1 mg/mL in deionized water, room temperature
Method: All peptides were dissolved in the deionized water at a final concentration of 0.1 mg/mL. The CD spectra were measured by using a 1 nm bandwidth with a 1 nm step resolution from 190 to 260 nm at room temperature (Jasco spectropolarimeter, Japan). Final spectra were obtained from the average of three parallel scans after subtracting a spectrum of deionized water recorded under the same conditions. Each sample was scanned thrice and the averaged spectrum was smoothed. The helicity were calculated by CDNN 2.1 [59], [60].

Panc-1 cells [3] = test: Cell viability assay (CCK-8); format: cell-based; settings: 10 μM, CCK-8, OD450, three individual experiments
Method: Cells were seeded into 96-well plates (1000 cells per well) and cultured for the indicated times. Cell viability was evaluated using a CCK-8 kit (Solarbio, Beijing, China). The value of OD450 was calculated by spectrophotometer and presented as the mean ± standard deviation (SD) from three individual experiments.

[4] = target: T2, endogenous CREPT protein in Panc-1 cells (Homo sapiens, UniProt Q9NQG5); test: Western blot of endogenous CREPT (degradation); format: cell-based; settings: 10 μM or 20 μM peptide
T2 construct: endogenous protein level of CREPT in Panc-1, AsPc-1 and MIA-PaCa-2 cells; endogenous in cells; host or cells: Panc-1, AsPc-1, MIA PaCa-2
T2 sequence (Q9NQG5 1-326): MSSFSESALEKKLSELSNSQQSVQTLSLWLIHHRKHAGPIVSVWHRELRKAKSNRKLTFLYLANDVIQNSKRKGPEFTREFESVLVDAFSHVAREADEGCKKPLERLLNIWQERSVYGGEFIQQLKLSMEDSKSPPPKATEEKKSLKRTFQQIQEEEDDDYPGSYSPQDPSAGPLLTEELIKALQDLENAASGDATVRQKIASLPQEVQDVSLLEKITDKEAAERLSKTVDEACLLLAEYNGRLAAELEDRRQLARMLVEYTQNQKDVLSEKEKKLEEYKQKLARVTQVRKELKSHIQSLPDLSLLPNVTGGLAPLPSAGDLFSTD
Method: as §1
To address whether PRTC could induce CREPT degradation, we examined the endogenous protein level of CREPT in Panc-1, AsPc-1 and MIA-PaCa-2 cells in the presence of different dosages of PRTC. […] Consistently, treatment with PRTC led to decreases in CREPT protein at different times (Figure 5B, S3A). […] To further visualize the degradation process, we stained the endogenous CREPT protein with an antibody against CREPT in the cells treated with FITC-labeled PRTC.
Figure 5 PRTC induces the ubiquitination and proteasome- dependent degradation of the endogenous CREPT protein. (A) Immunoblot of CREPT following 24 h incubation with different dosages of PRTC or PRTC-m in Panc-1 cells. (B) Immunoblot of CREPT exposed to 10 μM PRTC or PRTC-m for different times in Panc-1 cells. (C) Western blot analysis of CREPT following 24 h incubation with 10 μM PTRC in Panc-1 cells. MG132 is an inhibitor of proteasome activity. (D) Immunofluorescence visualization of Panc-1 cells after treatment with PRTC for 24 h. Cells were stained with anti-CREPT antibody. Scale bars, 20 μm.

Panc-1 cells [5] = test: Wound healing; format: cell-based; settings: 10 μM for 24 h, FBS-free DMEM
Method: Cells were seeded in 6-well plates. Monolayer cells were scratched after culturing to obtain at least 95% confluence. Cells were washed with PBS and maintained in FBS-free DMEM and then treated with 10 μM PRTC and PRTC-m for 24 h. Migration distance was observed by microscopy and was measured by ImageJ from three individual experiments.

CREPT protein = target: T3, CREPT protein (Homo sapiens, UniProt Q9NQG5); test: Thermal shift assay (TSA); format: binding; settings: GST-tagged CREPT 5.33 μM, SYPRO Orange, 25 to 70 °C at 1 °C/min
T3 construct: made in house
T3 sequence (Q9NQG5 1-326): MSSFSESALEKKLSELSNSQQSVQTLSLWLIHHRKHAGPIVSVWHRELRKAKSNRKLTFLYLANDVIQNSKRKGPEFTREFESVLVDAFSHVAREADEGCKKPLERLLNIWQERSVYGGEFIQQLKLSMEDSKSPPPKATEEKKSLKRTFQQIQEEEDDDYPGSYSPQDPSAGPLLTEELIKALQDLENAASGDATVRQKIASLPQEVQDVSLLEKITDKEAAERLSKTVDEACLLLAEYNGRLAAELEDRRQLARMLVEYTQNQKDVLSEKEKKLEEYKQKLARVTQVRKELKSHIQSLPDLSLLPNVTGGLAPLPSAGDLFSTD
Method: Purified CREPT proteins were appropriately diluted in a buffer containing 50 mM Tris-HCl, pH 8.0, 150 mM NaCl. The final concentration of CREPT protein was 5.33 μM. SYPRO Orange dye was diluted into 10 μM. The PCR plates were sealed, shaken, and centrifuged after proteins and peptides were added. Thermal scanning (25 to 70 °C at 1 °C/min) was performed using a real-time PCR instrument (Bio-Rad). Melting curves were generated by Prism 7.0 based on the raw data.

[6] = target: T4, purified GST-CREPT protein (Homo sapiens, UniProt Q9NQG5); test: Microscale thermophoresis (MST); format: binding; settings: FITC-labeled peptide 100 nM, gradient dilutions of purified GST-CREPT
T4 construct: made in house
T4 sequence (Q9NQG5 1-326): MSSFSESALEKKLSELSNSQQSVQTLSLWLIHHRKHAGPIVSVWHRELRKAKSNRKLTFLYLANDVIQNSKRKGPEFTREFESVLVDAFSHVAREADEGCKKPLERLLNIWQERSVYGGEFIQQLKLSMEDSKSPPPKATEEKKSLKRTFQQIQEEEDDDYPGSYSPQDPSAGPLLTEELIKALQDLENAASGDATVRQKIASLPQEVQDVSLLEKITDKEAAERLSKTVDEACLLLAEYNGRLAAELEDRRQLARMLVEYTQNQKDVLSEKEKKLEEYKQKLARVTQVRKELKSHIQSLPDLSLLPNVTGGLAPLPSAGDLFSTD
Method: FITC-labeled PRTC and PRTC-m were regarded as ligands. After a pretest, 100 nM of both PRTC and PRTC-m generated the most appropriate value of fluorescence. Gradient dilutions of purified CREPT proteins were regarded as the target. The Kd value was measured by Microscale Thermophoresis NT.115 and was analyzed by MO.AffinityAnalysis (Nano Temper, German).

[7] = target: T5, purified GST-CREPT protein (microscale thermophoresis and thermal shift assay) (UniProt Q9NQG5 1-326); test: thermal shift assay; 5.33 μM purified CREPT protein in 50 mM Tris-HCl pH 8.0, 150 mM NaCl, SYPRO Orange, peptide or deionized H2O added; 25 to 70 °C at 1 °C/min; settings: both partners purified
T5 construct: CREPT (also named RPRD1B); it may be the same as m2 or m3; also called GST-tagged CREPT; purified CREPT proteins; source: purified
T5 sequence (looked up): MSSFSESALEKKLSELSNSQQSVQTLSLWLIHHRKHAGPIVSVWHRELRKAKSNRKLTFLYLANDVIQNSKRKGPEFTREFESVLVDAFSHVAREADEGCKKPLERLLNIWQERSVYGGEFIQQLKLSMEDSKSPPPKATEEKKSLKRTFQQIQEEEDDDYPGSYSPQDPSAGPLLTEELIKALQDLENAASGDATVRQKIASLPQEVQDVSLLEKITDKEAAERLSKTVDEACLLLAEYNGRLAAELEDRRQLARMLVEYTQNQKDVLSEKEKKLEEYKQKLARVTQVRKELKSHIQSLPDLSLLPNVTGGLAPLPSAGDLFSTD

[8] = target: T5, purified GST-CREPT protein (microscale …); test: MST; 100 nM FITC-labeled peptide kept constant, gradient dilutions of purified GST-CREPT; Microscale Thermophoresis NT.115, MO.AffinityAnalysis; settings: both partners purified

With “IYP (OH) AL-AHX-KDVPSEKEKKPEEYKQKPARV-RRRRK [PRTC-m, three leucine residues on PRTC were replaced with proline residues]” as the molecule, how does the “ubiquitinated CREPT proteins” value [1] read?
The value was “unable to mediate the accumulation”.

What about the “secondary structure by CD spectrum” value [2] of the same molecule?
The value was “disordered structure”.

And the Helicity ([2]; 190 to 260 nm, average of three scans, calculated by CDNN 2.1)?
The Helicity was 7.9%.

What about the cell proliferation (Panc-1 cells [3]) of the same molecule?
Its cell proliferation is “failed”.

What about the “CREPT protein level at different times” value [4] of the same molecule?
The value was “no effect”.

And the “cell movement (wound healing)” value (Panc-1 cells [5])?
Its value is “not”.

What about the “effect on thermal stability of CREPT” value (CREPT protein) of the same molecule?
The value was “failed to alter”.

What about the “association with CREPT (MST)” value [6] of the same molecule?
The value was “failed to associate”.

B1: PRTC (peptide)
peptide: IY[Hyp]AL[Ahx]KDVLSEKEKKLEEYKQKLARVRRRRK
notes: VHL ligand IYP(OH)AL; the P is trans-4-hydroxy-L-proline; followed by the AHX linker; CREPT ligand (CL): leucine-zipper-like motif of CREPT (RPRD1B), lysine 266 to valine 286; transmembrane transport pentapeptide; The thermal shift assay names the peptide only as PRTC; also called cell-permeable peptide-based PROTAC against CREPT; source: synthetic peptide (ChinaPeptides Co., Ltd.), purified by …
With B1 as the molecule, how does the “dTm (thermal shift)” value [7] read?
The value was 6 °C.

B2: FITC-PRTC (peptide)
peptide: {FITC-Ahx}-IY[Hyp]AL[Ahx]KDVLSEKEKKLEEYKQKLARVRRRRK
notes: VHL ligand IYP(OH)AL; the P is trans-4-hydroxy-L-proline; followed by the AHX linker; CREPT ligand (CL): leucine-zipper-like motif of CREPT (RPRD1B), lysine 266 to valine 286; transmembrane transport pentapeptide; Peptide-based PROTAC: VHL ligand, AHX linker, CREPT ligand, RRRRK; also called FITC-labeled PRTC; source: synthetic peptide (ChinaPeptides Co., Ltd.), purified by HPLC
Which Kd [8] does the source give for B2 here?
Its Kd is 340 nM.
